# Laboratory results published in US20040072903A1, “Carboxyalkylether-acat inhibitors combinations” (priority 2002, published 2004).
# Key:
# Chow-Fed Rat = experiment: Effects of Treatment on Lipid and Lipoprotein Parameters in the Chow-Fed Rat; assay type: in vivo; parameters: TG (Triglyceride) / Cholesterol (Total cholesterol) / VLDL (Very low-density cholesterol) / LDL (Low-density cholesterol) / HDL (High-density cholesterol): unit not given here
# man = conditions: in man, Helsinki Heart Study; cited from earlier work
SMILES,Cholesterol (Total cholesterol) (Chow-Fed Rat; 10 mg/kg),HDL (High-density cholesterol) (Chow-Fed Rat; 10 mg/kg),HDL/VLDL + LDL (HDL divided by the sum of VLDL and LDL) (Chow-Fed Rat; 10 mg/kg),LDL (Low-density cholesterol) (Chow-Fed Rat; 10 mg/kg),TG (Triglyceride) (Chow-Fed Rat; 10 mg/kg),VLDL (Very low-density cholesterol) (Chow-Fed Rat; 10 mg/kg),Cholesterol (Total cholesterol) (Chow-Fed Rat; 30 mg/kg),HDL (High-density cholesterol) (Chow-Fed Rat; 30 mg/kg),HDL/VLDL + LDL (HDL divided by the sum of VLDL and LDL) (Chow-Fed Rat; 30 mg/kg),LDL (Low-density cholesterol) (Chow-Fed Rat; 30 mg/kg),TG (Triglyceride) (Chow-Fed Rat; 30 mg/kg),VLDL (Very low-density cholesterol) (Chow-Fed Rat; 30 mg/kg),further results
CC(C)(CCCCOCCCCC(C)(C)C(=O)O)C(=O)O [CI-1027],89 ± 8.5,76 ± 7.1,6.8 ± 0.7,9.1 ± 1.1,60 ± 8.8,2.8 ± 0.8,119 ± 21,100 ± 14.8,9.4 ± 2.7,17.6 ± 6.1,27 ± 2.0,0.7 ± 0.2,Cholesterol (Total cholesterol) (Chow-Fed Rat; 3 mg/kg): 40 ± 1.4; HDL (High-density cholesterol) (Chow-Fed Rat; 3 mg/kg): 28 ± 1.0; HDL/VLDL + LDL (HDL divided by the sum of VLDL and LDL) (Chow-Fed Rat; 3 mg/kg): 2.4 ± 0.1; LDL (Low-density cholesterol) (Chow-Fed Rat; 3 mg/kg): 9.0 ± 0.5; TG (Triglyceride) (Chow-Fed Rat; 3 mg/kg): 70 ± 2.8; VLDL (Very low-density cholesterol) (Chow-Fed Rat; 3 mg/kg): 2.7 ± 0.3
CC(C)c1cc(C(C)C)c(CC(=O)NS(=O)(=O)Oc2c(C(C)C)cccc2C(C)C)c(C(C)C)c1 [Avisimbe],36 ± 2.3,19.5 ± 1.7,1.2 ± 0.1,12.0 ± 1.1,85 ± 16.8,3.9 ± 0.7,37 ± 2.9,22.2 ± 1.8,1.6 ± 0.1,12.0 ± 0.8,65 ± 12.9,2.1 ± 0.6,–
Cc1ccc(C)c(OCCCC(C)(C)C(=O)O)c1 [gemfibrozil],–,–,–,–,–,–,–,–,–,–,–,–,HDL-C (man): increased; LDL-C (man): decreased; incidence of coronary artery disease (man): reduced
